In patent US10226534B2, “Semi-solid delivery systems” (REGENTS OF THE UNIVERSITY OF MINNESOTA, priority 2013, dated 2019):
Converted amounts (≈) assume the structure as drawn.

Assay: Solubilization of Nile Red in water aided by the semi-solid polymer
Format: physicochemical
Experimental: Nile Red (NR) is a hydrophobic molecule that is insoluble in water. 3 mg of NR solid particles suspended in 1 mL of aqueous phosphate buffered saline (PBS) without dissolving. With addition of 10% semi-solid polymer (100 mg), NR is completely solubilized in PBS to 3 mg/mL.

CCN(CC)c1ccc2nc3c4ccccc4c(=O)cc-3oc2c1 [Nile Red]
solubility (PBS with 10% semi-solid polymer, aqueous with cosolvent or surfactant or cyclodextrin, thermodynamic from solid, with addition of 10% semi-solid polymer (100 mg in 1 mL PBS)): 3000 µg/mL (≈ 9.42 mM) | Solubility in water (without polymer): insoluble
